Some results are limits rather than exact numbers.

The target in one series is CDK2/CyclinE (Homo sapiens, UniProt P24941). As to the kind of experiment: CDK2/CyclinE Flashplate assay, 96-well format, biotinylated-Rb peptide substrate. The format is biochemical. In short, it runs like this: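 Biotinylated Rb peptide was captured on streptavidin Flashplates, and CDK2/CyclinE (200 ng/well) was preincubated 30 min on ice with inhibitor at 10, 3, 1, 0.3 or 0.1 μM final. Reactions ran 45 min at RT with 1 μM ATP plus 1 μCi ^33P-ATP. After washing, incorporated ^33P was counted, in duplicate.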

Another series deals with CDK4/CyclinD1 (Homo sapiens, UniProt P11802). As to the kind of experiment: CDK4/CyclinD1 Flashplate assay, 96-well format, biotinylated-Rb peptide substrate. The format is biochemical. In a few lines:
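Biotinylated Rb peptide bound to streptavidin Flashplate; CDK4/CyclinD1 (70 ng/well) preincubated 30 min on ice with compound at 10, 3, 1, 0.3 and 0.1 μM final. Reaction with 1 μM cold ATP plus 33P-ATP for 45 min at RT; incorporated 33P counted, duplicates.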

Chain of CDK4/CyclinD1 (P11802 whole entry, species assumed): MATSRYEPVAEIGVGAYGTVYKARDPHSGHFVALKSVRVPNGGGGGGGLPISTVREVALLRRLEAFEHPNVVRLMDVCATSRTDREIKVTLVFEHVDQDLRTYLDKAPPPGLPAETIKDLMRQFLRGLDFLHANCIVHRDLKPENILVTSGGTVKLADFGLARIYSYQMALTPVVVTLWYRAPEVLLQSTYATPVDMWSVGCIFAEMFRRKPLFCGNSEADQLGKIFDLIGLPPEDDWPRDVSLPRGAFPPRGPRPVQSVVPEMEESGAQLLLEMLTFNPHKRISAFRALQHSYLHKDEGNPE
Chain of CDK4/CyclinD1 (P24385 whole entry partner, species assumed): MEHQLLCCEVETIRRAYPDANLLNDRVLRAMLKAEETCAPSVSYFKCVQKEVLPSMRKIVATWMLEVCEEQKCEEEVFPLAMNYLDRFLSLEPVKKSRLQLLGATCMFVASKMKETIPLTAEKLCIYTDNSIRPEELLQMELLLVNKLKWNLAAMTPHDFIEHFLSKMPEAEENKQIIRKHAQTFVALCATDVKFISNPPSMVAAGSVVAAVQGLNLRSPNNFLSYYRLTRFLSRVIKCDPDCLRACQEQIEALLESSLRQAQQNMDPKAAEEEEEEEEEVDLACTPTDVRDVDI

As to `COC(=O)Nc1nc2cc(OS(=O)(=O)c3ccc(NCCCCO)cc3)ccc2[nH]1` [Example 2, Methyl-5-(4-[4-hydroxbutyl]aminophenylsulfonyloxy) benzimidazole-2-carbamate], the melting point (in general, the temperature, or range, at which the solid turns liquid) amounted to 180 °C. Moreover, at CDK2/CyclinE, the IC50 (commonly the midpoint of a concentration-inhibition curve) came to 700 nM. The same molecule displayed an IC50 on CDK4/CyclinD1 of 2000 nM.

In turn, `COCCNc1ccc(S(=O)(=O)Oc2ccc3[nH]c(NC(=O)OC)nc3c2)cc1` [Example 3, Methyl-5-(4-[2-methoxyethyl]aminophenylsulfonyloxy) benzimidazole-2-carbamate] had a melting point of 155 °C. Further, the IC50 against CDK2/CyclinE was found to be 500 nM. Besides, it took 2400 nM to reach half-maximal inhibition on CDK4/CyclinD1 (IC50).

With `COC(=O)Nc1nc2cc(OS(=O)(=O)c3ccc(NCCO)cc3)ccc2[nH]1` [Example 1, Methyl-5-(4-[2-hydroxyethyl]aminophenylsulfonyloxy) benzimidazole-2-carbamate], the melting point turned out to be 170 °C. At CDK2/CyclinE, the IC50 amounted to 600 nM. The molecule also registered an IC50 at CDK4/CyclinD1 of 1500 nM.

In the case of `CCC(CO)Nc1ccc(S(=O)(=O)Oc2ccc3[nH]c(NC(=O)OC)nc3c2)cc1` (stereo not drawn) [Example 11, Methyl-5-(4-[1-ethyl, 2-hydroxyethyl]aminophenylsulfonyloxy)benzimidazole-2-carbamate], the half-inhibitory concentration (IC50) amounted to 500 nM at CDK2/CyclinE and 930 nM against CDK4/CyclinD1.

For the molecule `O=C(NCCN1CCCCC1)Nc1nc2cc(OS(=O)(=O)c3ccc(NCC4CCCO4)cc3)ccc2[nH]1` (stereo not drawn) [Example 59-r, 4-[(Tetrahydro-furan-2-ylmethyl)-amino]-benzenesulfonic acid 2-[3-(2-piperidin-1-yl-ethyl)-ureido]-1H-benzoimidazol-5-yl ester], the IC50 came to 220 nM at CDK2/CyclinE and 1800 nM on CDK4/CyclinD1.

As to `O=C(NCc1ccccc1)Nc1nc2cc(OS(=O)(=O)c3ccc(NC4CCCC4)cc3)ccc2[nH]1` [Example 58-l, 4-Cyclopentylamino-benzenesulfonic acid 2-(3-benzyl-ureido)-1H-benzoimidazol-5-yl ester], the IC50 on CDK2/CyclinE stood at 30 nM; on CDK4/CyclinD1, 1000 nM.

Regarding `O=C(Nc1ccc(F)cc1)Nc1nc2cc(OS(=O)(=O)c3ccc(-n4ccnc4)cc3)ccc2[nH]1` [Example 57-f, 4-Imidazol-1-yl-benzenesulfonic acid 2-[3-(4-fluoro-phenyl)-ureido]-1H-benzoimidazol-5-yl ester], it took 500 nM to reach half-maximal inhibition against CDK2/CyclinE (IC50). Also, testing at 10 µM at CDK4/CyclinD1 gave an inhibition of 88%.

Regarding `O=C(NCCN1CCCC1)Nc1nc2cc(OS(=O)(=O)c3ccc(NCC4CCCO4)cc3)ccc2[nH]1` (stereo not drawn) [Example 59-g, 4-[(Tetrahydro-furan-2-ylmethyl)-amino]-benzenesulfonic acid 2-[3-(2-pyrrolidin-1-yl-ethyl)-ureido]-1H-benzoimidazol-5-yl ester], the IC50 at CDK2/CyclinE is 200 nM; against CDK4/CyclinD1, 1800 nM.

Consider `CNC(=O)Nc1nc2cc(OS(=O)(=O)c3ccc(NCC4CCCO4)cc3)ccc2[nH]1` (stereo not drawn) [Example 54, 4-[(Tetrahydro-furan-2-ylmethyl)-amino]-benzenesulfonic acid 2-(3-methyl-ureido)-1H-benzoimidazol-5-yl ester], for which the figures for the IC50 at CDK2/CyclinE and against CDK4/CyclinD1 were 5 nM and 500 nM, respectively.

As to `O=C(Nc1nc2cc(OS(=O)(=O)c3ccc(-n4ccnc4)cc3)ccc2[nH]1)NC1CCCC1` [Example 57-c, 4-Imidazol-1-yl-benzenesulfonic acid 2-(3-cyclopentyl-ureido)-1H-benzoimidazol-5-yl ester], half-maximal inhibition at CDK2/CyclinE (IC50) was put at 600 nM. For the same molecule, the inhibition (as a rule, the percentage by which the read-out fell short of the control) at 10 µM at CDK4/CyclinD1 was determined as 60%.

In the case of `COC(=O)Nc1nc2cc(OS(=O)(=O)c3ccc(NCCc4ccccc4)cc3)ccc2[nH]1` [Example 20, Methyl-5-(4-[2-phenylethyl]aminophenylsulfonyloxy) benzimidazole-2-carbamate], the figures for the IC50 on CDK2/CyclinE and against CDK4/CyclinD1 were greater than 10000 nM and greater than 3000 nM, respectively.

`O=C(Nc1ccc(Cl)cc1)Nc1nc2cc(OS(=O)(=O)c3ccc(NC4CCCC4)cc3)ccc2[nH]1` [Example 40, 4-Cyclopentylamino-benzenesulfonic acid 2-[3-(4-chloro-phenyl)-ureido]-1H-benzoimidazol-5-yl ester]: the half-maximal inhibitory concentration (IC50) at CDK2/CyclinE amounted to 1090 nM; on CDK4/CyclinD1 it was 3710 nM.

Take `CN(C)c1ccc(Nc2nc3cc(OS(=O)(=O)c4ccc(NC5CCCC5)cc4)ccc3[nH]2)cc1` [Example 70-e, 4-Cyclopentylamino-benzenesulfonic acid 2-(4-dimethylamino-phenylamino)-1H-benzoimidazol-5-yl ester]: the IC50 came out at 800 nM against CDK2/CyclinE and 500 nM at CDK4/CyclinD1.

`CC(C)(C)NC(=O)Nc1nc2cc(OS(=O)(=O)c3ccc(NC4CCCC4)cc3)ccc2[nH]1` [Example 53, 4-Cyclopentylamino-benzenesulfonic acid 2-(3-tert-butyl-ureido)-1H-benzoimidazol-5-yl ester]: at CDK2/CyclinE, half-maximal inhibition (IC50) was put at 800 nM. At CDK4/CyclinD1, the inhibition at 10 µM was 83%.

In the case of `O=C(Nc1ccccc1)Nc1nc2cc(OS(=O)(=O)c3ccc(NC4CCCC4)cc3)ccc2[nH]1` [Example 58-a, 4-Cyclopentylamino-benzenesulfonic acid 2-(3-phenyl-ureido)-1H-benzoimidazol-5-yl ester], the IC50 on CDK2/CyclinE was found to be 380 nM. For the same molecule, at 10 µM the inhibition at CDK4/CyclinD1 was 96%.

On to `CN(C)C(=O)Nc1nc2cc(OS(=O)(=O)c3ccc(NC4CCCC4)cc3)ccc2[nH]1` [Example 32, N-[5-(4-cyclopentylaminophenylsulfonyloxy)-1H-benzimidazole-2-yl]-dimethylurea], for which the IC50 was 1100 nM on CDK2/CyclinE and greater than 5000 nM on CDK4/CyclinD1.

`CCNC(=O)Nc1nc2cc(OS(=O)(=O)c3ccc(NCC4CCCO4)cc3)ccc2[nH]1` (stereo not drawn) [Example 59-j, 4-[(Tetrahydro-furan-2-ylmethyl)-amino]-benzenesulfonic acid 2-(3-ethyl-ureido)-1H-benzoimidazol-5-yl ester]: the IC50 against CDK2/CyclinE is 7 nM; at CDK4/CyclinD1, 900 nM.

`CCNc1ccc(S(=O)(=O)Oc2ccc3[nH]c(NC(=O)OC)nc3c2)cc1` [Example 6, Methyl-5-(4-ethylaminophenylsulfonyloxy) benzimidazole-2-carbamate]: the results for the IC50 against CDK2/CyclinE and against CDK4/CyclinD1 were 300 nM and 840 nM, respectively.

`CC(C)(C)OC(=O)NCC(=O)Nc1nc2cc(OS(=O)(=O)c3ccc(NC4CCCC4)cc3)ccc2[nH]1` [Example 24, 4-Cyclopentylamino-benzenesulfonic acid 2-(2-tert-butoxycarbonylamino-acetylamino)-1H-benzoimidazol-5-yl ester]: the half-maximal inhibitory concentration (IC50) worked out at 400 nM against CDK2/CyclinE and 600 nM at CDK4/CyclinD1.

For `O=C(NCc1ccccc1)Nc1nc2cc(OS(=O)(=O)c3ccc(-n4ccnc4)cc3)ccc2[nH]1` [Example 57-l, 4-Imidazol-1-yl-benzenesulfonic acid 2-(3-benzyl-ureido)-1H-benzoimidazol-5-yl ester], the IC50 on CDK2/CyclinE turned out to be 70 nM; on CDK4/CyclinD1 it was 1000 nM.

For `O=C(Nc1nc2cc(OS(=O)(=O)c3ccc(NC4CCCC4)cc3)ccc2[nH]1)N[C@H]1CC[C@H](O)CC1` [Example 58-x, 4-Cyclopentylamino-benzenesulfonic acid 2-[3-(4trans-hydroxy-cyclohexyl)-ureido]-1H-benzoimidazol-5-yl ester], the IC50 at CDK2/CyclinE was determined as 40 nM; on CDK4/CyclinD1, 310 nM.

For `O=C(NCCN1CCOCC1)Nc1nc2cc(OS(=O)(=O)c3ccc(NC4CCCC4)cc3)ccc2[nH]1` [Example 58-v, 4-Cyclopentylamino-benzenesulfonic acid 2-[3-(2-morpholin-4-yl-ethyl)-ureido]-1H-benzoimidazol-5-yl ester], the half-inhibitory concentration (IC50) against CDK2/CyclinE turned out to be 100 nM; at CDK4/CyclinD1, 110 nM.

`COc1ccc(Nc2nc3cc(OS(=O)(=O)c4ccc(NC5CCCC5)cc4)ccc3[nH]2)cc1OC` [Example 69, 4-cyclopentylamino-benzenesulfonic acid 2-(3,4-dimethoxy-phenylamino)-1H-benzoimidazol-5-yl ester]: the IC50 turned out to be 130 nM against CDK2/CyclinE and 840 nM on CDK4/CyclinD1.

In the case of `COC(=O)Nc1nc2cc(OS(=O)(=O)c3ccc(NCC(=O)O)cc3)ccc2[nH]1` [Example 7, Methyl-5-(4-[N-Glycinyl]-phenylsulfonyloxy) benzimidazole-2-carbamate], the IC50 at CDK2/CyclinE turned out to be 2000 nM; against CDK4/CyclinD1, 470 nM.

For the molecule `CNC(=O)Nc1nc2cc(OS(=O)(=O)c3ccc(NC4CCCC4)cc3)ccc2[nH]1` [Example 31, N-[5-(4-cyclopentylaminophenylsulfonyloxy)-1H-benzimidazole-2-yl]-methylurea], the IC50 against CDK2/CyclinE was 100 nM; at CDK4/CyclinD1 it was 500 nM.

Take `COC(=O)CCC(=O)Nc1nc2cc(OS(=O)(=O)c3ccc(-n4ccnc4)cc3)ccc2[nH]1` [Example 23, N-[5-(4-Imidazol-1-yl-benzenesulfonyloxy)-1H-benzoimidazol-2-yl]-succinamic acid methyl ester]: the IC50 turned out to be 400 nM on CDK2/CyclinE and 3100 nM against CDK4/CyclinD1.

As to `O=C(NCc1cccc(F)c1)Nc1nc2cc(OS(=O)(=O)c3ccc(NC4CCCC4)cc3)ccc2[nH]1` [Example 41, 4-Cyclopentylamino-benzenesulfonic acid 2-[3-(3-fluoro-benzyl)-ureido]-1H-benzoimidazol-5-yl ester], the IC50 at CDK2/CyclinE worked out at 60 nM; against CDK4/CyclinD1 it was 2800 nM.

`COC(=O)Nc1nc2cc(OS(=O)(=O)c3ccc(-n4ccnc4)cc3)ccc2[nH]1` [Example 4, Methyl-5-(4-[1-imidazolyl]-phenylsulfonyloxy) benzimidazole-2-carbamate] registered a melting point of 258 °C. At CDK2/CyclinE, the IC50 is 1500 nM. The molecule also returned an IC50 against CDK4/CyclinD1 of 6300 nM.

These data come from US20050014811A1, “Substituted benzimidazole compounds and their use for the treatment of cancer” (Aventis Pharma S.A., priority 2001, published 2005).
